Test results reported in the Deep4Chem optical property database.
Values belong to the compound of their own block, whether it stands above or below them.

Test: solvent given as SMILES
[1] = in O=P(c1ccccc1)(c1ccccc1)c1ccccc1Oc1ccccc1P(=O)(c1ccccc1)c1ccccc1

Structure (SMILES): CCOC(=O)CN1C(=O)C2=C(c3ccc(N4CCCCC4)cc3)N(CC(=O)OCC)C(=O)C2=C1c1ccc(N2CCCCC2)cc1
- emission maximum (in CC#N): 590 nm
- emission maximum (in CS(C)=O): 603 nm
- emission maximum (in Cc1ccccc1): 575 nm

Structure (SMILES): CCCCC(CC)CN1C(=O)c2cc(Oc3ccc(OC)cc3)c3c4c(Oc5ccc(C(C)(C)C)cc5)cc5c6c(cc(Oc7ccc(C(C)(C)C)cc7)c(c7c(Oc8ccc(OC)cc8)cc(c2c37)C1=O)c64)C(=O)N(c1c(C(C)C)cccc1C(C)C)C5=O (stereo not given)
- emission maximum (in Cc1ccccc1): 608 nm

Structure (SMILES): CN(C)c1ccc(/C=C/c2ccc([N+](=O)[O-])c(O)c2)cc1
- emission maximum (in C1CCCCC1): 529 nm
- emission maximum (in C1COCCO1): 633 nm
- emission maximum (in CCCCCCC): 523 nm
- emission maximum (in Cc1ccccc1): 605 nm

Structure (SMILES): COc1c(-c2ccc(N(C)C)cc2)oc2ccccc2c1=O
- emission maximum (in C1CCCCC1): 413.89 nm
- emission maximum (in CC#N): 490.48 nm
- emission maximum (in CCOC(C)=O): 468.65 nm

Structure (SMILES): CC(=O)O[B-]1(OC(C)=O)OC(/C=C/c2ccc(C)cc2)=CC(/C=C/c2ccc(C)cc2)=[O+]1
- emission maximum (in C1CCOC1): 484 nm
- emission maximum (in CC#N): 493 nm
- emission maximum (in CC(C)=O): 489 nm
- emission maximum (in CS(C)=O): 499 nm
- emission maximum (in Cc1ccccc1): 481 nm
- emission maximum (in ClC(Cl)Cl): 491 nm
- emission maximum (in ClCCl): 492 nm

Structure (SMILES): CC1(C)C(/C=C/C=C/C=C/C=C2/N(CCC(=O)O)c3ccc4ccccc4c3C2(C)C)=[N+](CCC(=O)O)c2ccc3ccccc3c21
- emission maximum (in CO): 817 nm

Structure (SMILES): CCn1c2ccccc2c2ccc(-c3ccc(OC)cc3)cc21
- emission maximum (in C1CCCCC1): 383 nm

Structure (SMILES): c1ccc2cc(-n3cnc4ccccc43)ccc2c1
- emission maximum (in C1CCCCC1): 374 nm
- emission maximum (in C1CCOC1): 374 nm
- emission maximum (in CC#N): 376 nm
- emission maximum (in CCO): 376 nm
- emission maximum (in CCOC(C)=O): 375 nm
- emission maximum (in CCOCC): 376 nm
- emission maximum (in CO): 377 nm
- emission maximum (in Cc1ccccc1): 374 nm
- emission maximum (in ClC(Cl)Cl): 375 nm

Structure (SMILES): N[C@@H](Cc1ccc(O)cc1)C(=O)O
- emission maximum (in O): 300 nm

Structure (SMILES): CCCCN1C(=O)c2cc(Oc3ccc(C(C)(C)C)cc3)c3c4c(Oc5ccc(C(C)(C)C)cc5)cc5c(=O)n6c(c7cc(Oc8ccc(C(C)(C)C)cc8)c(c8c(Oc9ccc(C(C)(C)C)cc9)cc(c2c38)C1=O)c4c57)=Cc1ccc2ccccc2[n+]1[B-]6(F)F
- emission maximum (in ClCCl): 684 nm

Structure (SMILES): COc1cc2c(cc1-c1cccs1)Cc1c3c(c4c(c1-2)-c1cc(OC)c(-c2cccs2)cc1C4)C(=O)N(CCC(C)C)C3=O
- emission maximum (in C1CCOC1): 505 nm

Structure (SMILES): c1ccc(-c2nc(-c3ccccc3)nc(-c3cc(-n4c5ccccc5c5ncccc54)c(-n4c5ccccc5c5ncccc54)c(-n4c5ccccc5c5ncccc54)c3)n2)cc1
- emission maximum (in Cc1ccccc1): 435.76 nm

Structure (SMILES): O=C(O)COc1cccc(-c2c3nc(cc4ccc([nH]4)c(-c4cccc(OCC(=O)O)c4)c4nc(cc5ccc2[nH]5)CC4)CC3)c1
- emission maximum (in CS(C)=O): 738 nm

Structure (SMILES): CCC[n+]1ccc(/C=C/c2ccc(N(C)C)cc2)cc1
- emission maximum (in C1COCCO1): 557 nm
- emission maximum (in CC(C)O): 571 nm
- emission maximum (in CCCCO): 576 nm
- emission maximum (in CCCO): 576 nm
- emission maximum (in CCO): 576 nm
- emission maximum (in CO): 579 nm
- emission maximum (in CS(C)=O): 589 nm
- emission maximum (in ClC(Cl)Cl): 560 nm
- emission maximum (in ClCCl): 560 nm
- emission maximum (in c1ccccc1): 552 nm

Structure (SMILES): N#Cc1cc(N2c3ccccc3Sc3ccccc32)cc(N2c3ccccc3Sc3ccccc32)c1
- emission maximum (in Cc1ccccc1): 536 nm

Structure (SMILES): COc1ccc(C#Cc2nc(C#Cc3ccc(OC)cc3)c(C#Cc3ccc(OC)cc3)c(C#Cc3ccc(OC)cc3)c2C#Cc2ccc(OC)cc2)cc1
- emission maximum (in ClCCl): 459 nm

Structure (SMILES): O=c1c2ccccc2n2c3ccccc3c(=O)c3cc(-c4ccccc4)cc1c32
- emission maximum (in CC#N): 475 nm
- emission maximum (in CCCCCC): 447 nm
- emission maximum (in CCCCOCCCC): 454 nm
- emission maximum (in CCOC(C)=O): 464 nm
- emission maximum (in CN(C)C=O): 477 nm
- emission maximum (in Cc1ccccc1): 464.98 nm
- emission maximum (in c1cc(-c2cccc(-n3c4ccccc4c4ccccc43)c2)cc(-n2c3ccccc3c3ccccc32)c1): 472 nm
- emission maximum (in c1cc(-n2c3ccccc3c3ccccc32)cc(-n2c3ccccc3c3ccccc32)c1): 472 nm

Structure (SMILES): Oc1ccccc1-c1nc2c(c3c1-c1ccccc1CC3)-c1ccccc1CC2
- emission maximum (in ClCCl): 413 nm

Structure (SMILES): COc1ccc(/C=C(\C)c2nc3ccccc3s2)cc1
- emission maximum (in C1CCCCC1): 400 nm
- emission maximum (in CO): 420 nm

Structure (SMILES): N#Cc1cc(-n2c3ccccc3c3ccccc32)nc(-n2c3ccccc3c3ccccc32)n1
- emission maximum (in Cc1ccccc1): 471 nm

Structure (SMILES): O=S(=O)(c1ccc(N(c2ccccc2)c2ccccc2)cc1)c1ccc(N(c2ccccc2)c2ccccc2)cc1
- emission maximum (in Cc1ccccc1): 402 nm
- emission maximum [1]: 421 nm

Structure (SMILES): COc1ccc(-c2nc(-c3ccc(OC)cc3C)nc(-c3ccc(N4c5ccccc5C5(c6ccccc6-c6ccccc65)c5ccccc54)cc3C)n2)c(C)c1
- emission maximum (in Cc1ccccc1): 467 nm
- emission maximum [1]: 469 nm

Structure (SMILES): COc1cc(N(c2ccc(C=C(C#N)C#N)c(OC)c2)c2ccc(C=C(C#N)C#N)c(OC)c2)ccc1C=C(C#N)C#N
- emission maximum (in C1COCCO1): 521 nm
- emission maximum (in CC#N): 566 nm
- emission maximum (in CC(C)=O): 557 nm
- emission maximum (in CCOC(C)=O): 532 nm
- emission maximum (in CN(C)C=O): 575 nm
- emission maximum (in CO): 551 nm
- emission maximum (in Cc1ccccc1): 500 nm
- emission maximum (in ClC(Cl)Cl): 514 nm
- emission maximum (in ClCCl): 531 nm

Structure (SMILES): Cc1cc(C)c(B(c2cc(-c3ccc(C(F)(F)F)cc3)sc2-c2sc(-c3ccc(C(F)(F)F)cc3)cc2P(=O)(c2ccccc2)c2ccccc2)c2c(C)cc(C)cc2C)c(C)c1
- emission maximum (in CO): 548 nm

Results, then the compound that gave them:

- emission maximum (in ClCCl): 498 nm
Structure (SMILES): CCCCCCc1cc2c3c(c1)c(=C1c4ccccc4Sc4ccccc41)c1cc(CCCCCC)cc4c1N3c1c(cc(CCCCCC)cc1c4=C1c3ccccc3Sc3ccccc31)c2=C1c2ccccc2Sc2ccccc21

- emission maximum (in ClC(Cl)Cl): 670 nm
Structure (SMILES): CC1(C)C(/C=C2\C(=O)C(/C=C3\Nc4ccccc4C3(C)C)=C2[O-])=[NH+]c2ccccc21

- emission maximum (in ClC(Cl)Cl): 527 nm
Structure (SMILES): CCCCc1ccc(-n2c3c4cc(F)ccc4nc(-c4ccc(OC)cc4)c3c3c2c2c(-c4ccc(OC)cc4)nc4ccc(F)cc4c2n3-c2ccc(CCCC)cc2)cc1

- emission maximum (in CS(C)=O): 523.5 nm
Structure (SMILES): Clc1ccc(-c2nc3ccccc3c3cc4ccccn4c23)s1

- emission maximum (in C1CCOC1): 397 nm
Structure (SMILES): CCC1(CC)c2ccccc2-c2c1c1c(c3c2C(CC)(CC)c2cc(/C=C/c4cccs4)ccc2-3)C(CC)(CC)c2cc(/C=C/c3cccs3)ccc2-1

- emission maximum (in C1CCOC1): 540 nm
Structure (SMILES): C[Si](C)(C)c1ccc(-c2ccc(-c3ccc(-c4ccc(-c5ccc([Si](C)(C)C)s5)cc4)c4nsnc34)cc2)s1

- emission maximum (in ClC(Cl)Cl): 823 nm
Structure (SMILES): CN(C)c1ccc(C2=[N+]3C(=Nc4c(-c5ccccc5)cc(-c5ccc(N(C)C)cc5)n4[B-]3(F)F)C(c3ccccc3)=C2)cc1

- emission maximum (in ClCCl): 456 nm
Structure (SMILES): c1ccc([B-]23NC(C4CCCCC4)=Nc4cccc([n+]42)N=C(C2CCCCC2)N3)cc1

- emission maximum (in ClCCl): 544 nm
Structure (SMILES): CC(C)[Si](C#Cc1c2ccccc2c(C#C[Si](C(C)C)(C(C)C)C(C)C)c2nc3c4ccccc4c(=O)c4ccccc4c3nc12)(C(C)C)C(C)C

- emission maximum (in C1COCCO1): 402 nm
- emission maximum (in CC#N): 415 nm
- emission maximum (in CO): 432 nm
- emission maximum (in ClCCl): 409 nm
Structure (SMILES): COC(=O)c1nc2c(N(C)C)nc(N(C)C)nc2n1Cc1ccccc1

- emission maximum (in ClCCl): 558 nm
- emission maximum (in c1ccccc1): 522 nm
Structure (SMILES): CCCCN(CCCC)c1ccc2c(c1)C#CC#Cc1cc(C(F)(F)F)ccc1C#Cc1cc(c3cc1C#Cc1ccc(N(CCCC)CCCC)cc1C#CC#Cc1cc(C(F)(F)F)ccc1C#C3)C#C2

- emission maximum (in CO): 388 nm
Structure (SMILES): COc1ccc(OC)c(C(=O)O)c1

- emission maximum (in ClCCl): 530 nm
Structure (SMILES): CN(C)c1ccc(/C=C/c2cc(/C=C/c3ccc(N(C)C)cc3)ncn2)cc1

- emission maximum (in ClCCl): 449 nm
Structure (SMILES): COC(=O)[C@H](Cc1ccccc1)Nc1c(C(C)=O)c(=O)oc2cc(N(C)C)ccc12

- emission maximum (in ClCCl): 454 nm
Structure (SMILES): CC(C)(C)c1ccc2c(c1)c1cc(C(C)(C)C)ccc1n2-c1ccc(C#Cc2ccc3c4ccc(C#Cc5ccc(C=C(C#N)C#N)cc5)cc4n(-c4ccc(C(F)(F)F)cc4)c3c2)cc1

- emission maximum (in C1CCCCC1): 430 nm
Structure (SMILES): Cc1cc(C)c(B2c3cc(C(C)(C)C)cc4ccc5ccc6cc(C(C)(C)C)cc2c6c5c34)c(C)c1

- emission maximum (in CS(C)=O): 414 nm
Structure (SMILES): CCCCCCCCn1c2ccccc2c(=O)c2ccccc21

- emission maximum (in C1CCOC1): 476 nm
- emission maximum (in CC#N): 509 nm
- emission maximum (in CCCCCCC): 459 nm
- emission maximum (in CS(C)=O): 518 nm
- emission maximum (in ClCCl): 480 nm
Structure (SMILES): CN(C)c1ccc(/C=C/c2cccnn2)cc1

- emission maximum (in CO): 659 nm
- emission maximum (in CS(C)=O): 660 nm
- emission maximum (in O): 652 nm
Structure (SMILES): CCCN1/C(=C/C=C/C=C/C2=[N+](CCC)c3ccccc3C2(C)C)C(C)(C)c2ccccc21

- emission maximum (in C1COCCO1): 630 nm
- emission maximum (in ClCCl): 736 nm
Structure (SMILES): CCCCN(CCCC)c1ccc(/C=C/c2ccc3nc(/C=C/c4nc5ccc(/C=C/c6ccc(N(CCCC)CCCC)cc6)cc5n(CCC)c4=O)c(=O)n(CCC)c3c2)cc1

- emission maximum (in CC1CCCCC1): 320 nm
- emission maximum (in CC#N): 341 nm
- emission maximum (in CO): 342 nm
Structure (SMILES): COC(=O)C(NC(=O)OC(C)(C)C)c1ccc2oc(-c3ccc(F)cc3)nc2c1 (stereo not given)

- emission maximum (in ClCCl): 472 nm
Structure (SMILES): COc1ccc2c(c1)CCC1=C(C#Cc3ccc(Cl)cc3)O[B-](F)(F)[O+]=C12

- emission maximum (in CC#N): 553 nm
Structure (SMILES): COc1ccc(-c2nc(/C(C#N)=C/c3ccc(Cl)cc3)sc2-c2ccc(OC)cc2)cc1

- emission maximum (in ClCCl): 712 nm
Structure (SMILES): COc1c2ccccc2c(OC)c2c(C#C[Si](C(C)C)(C(C)C)C(C)C)c3cc4ccccc4cc3c(C#C[Si](C(C)C)(C(C)C)C(C)C)c12

- emission maximum (in O): 382 nm
Structure (SMILES): Cc1cn(CCCn2cc(C)c(=O)[nH]c2=O)c(=O)nc1-n1cncn1

- emission maximum (in ClCCl): 546 nm
Structure (SMILES): [O-][n+]1c(/C=C/c2ccc3ccccc3c2)nc(N2CCOCC2)c2c1CCCC2

- emission maximum (in ClCCl): 455 nm
Structure (SMILES): Brc1ccc(/C=C/c2cnc3ccccc3n2)cc1

- emission maximum (in ClCCl): 423 nm
Structure (SMILES): c1ccc(-n2c3ccccc3c3cc(C4(c5ccc6c(c5)c5ccccc5n6-c5ccccc5)c5cc(-c6ccc7ccc8cccc9ccc6c7c89)ccc5-c5ccc(-c6ccc7ccc8cccc9ccc6c7c89)cc54)ccc32)cc1

- emission maximum (in ClCCl): 402 nm
Structure (SMILES): COC(=O)c1c(-c2cc3ccccc3oc2=O)nn(-c2cccc(F)c2)c1C(=O)OC

- emission maximum (in ClCCl): 492 nm
Structure (SMILES): CCN(CC)c1ccc2cc(-c3nc4c5ccccc5c5ccccc5c4n3-c3ccc(C(C)(C)C)cc3)c(=O)oc2c1
